Source: patent US9839701B2, “Aromatic amino acid derivative and positron emission topography (PET) probe using the same” (OSAKA UNIVERSITY, priority 2013, dated 2017)

Experiments:
[1] = target: T1, human LAT2 (Homo sapiens, UniProt Q9UHI5); assay: Inhibition of amino acid uptake in human LAT2 stably expressing cell line; type: cell-based; conditions: human LAT2 stably expressing HEK293 cell line; for inhibition at 30 µM: HEK293, compound at 30 μM, read-out: Percentage of inhibition of LAT2-mediated amino acid uptake
T1 construct: expressed in transfected cells
T1 sequence (Q9UHI5 1-535): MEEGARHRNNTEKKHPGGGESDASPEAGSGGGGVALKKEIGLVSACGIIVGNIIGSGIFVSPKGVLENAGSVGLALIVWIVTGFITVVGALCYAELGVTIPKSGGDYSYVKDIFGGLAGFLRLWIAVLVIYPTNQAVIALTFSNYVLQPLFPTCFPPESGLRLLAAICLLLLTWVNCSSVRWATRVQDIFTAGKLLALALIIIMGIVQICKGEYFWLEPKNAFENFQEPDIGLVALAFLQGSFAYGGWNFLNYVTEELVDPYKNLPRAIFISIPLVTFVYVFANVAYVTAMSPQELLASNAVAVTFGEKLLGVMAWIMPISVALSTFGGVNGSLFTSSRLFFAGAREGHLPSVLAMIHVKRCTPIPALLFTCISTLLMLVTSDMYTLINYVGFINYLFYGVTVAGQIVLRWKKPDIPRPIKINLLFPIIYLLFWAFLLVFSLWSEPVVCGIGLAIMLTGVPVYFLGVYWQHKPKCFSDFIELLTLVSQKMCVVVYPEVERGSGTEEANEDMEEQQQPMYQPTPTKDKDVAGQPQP
T1 sequence (P08195 1-529 partner): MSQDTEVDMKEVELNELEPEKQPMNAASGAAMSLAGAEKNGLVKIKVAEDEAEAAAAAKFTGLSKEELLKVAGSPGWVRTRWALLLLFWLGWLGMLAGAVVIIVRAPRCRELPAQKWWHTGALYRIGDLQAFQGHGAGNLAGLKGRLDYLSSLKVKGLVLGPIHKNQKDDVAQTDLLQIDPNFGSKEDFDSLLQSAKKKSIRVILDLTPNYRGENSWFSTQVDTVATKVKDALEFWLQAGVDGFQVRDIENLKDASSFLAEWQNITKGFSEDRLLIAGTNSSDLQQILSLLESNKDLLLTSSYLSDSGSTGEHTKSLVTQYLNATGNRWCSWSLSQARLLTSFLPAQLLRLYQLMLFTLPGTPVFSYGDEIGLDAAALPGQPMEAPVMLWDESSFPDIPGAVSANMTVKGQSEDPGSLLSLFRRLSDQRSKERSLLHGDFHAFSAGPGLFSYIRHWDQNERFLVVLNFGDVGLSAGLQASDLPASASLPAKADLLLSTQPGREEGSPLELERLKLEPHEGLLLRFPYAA
Excerpt: (§1) A human LAT1 expression vector or a human LAT2 expression vector was transfected using Lipofectamine (registered trademark) 2000 (Invitrogen) into a human embryonic kidney cell line HEK293. G418-resistant HEK293 clones were selected, and among them, a clone showing human LAT1-specific amino acid uptake and a clone showing human LAT2-specific amino acid uptake were selected and established as a human LAT1 stably expressing cell line and a human LAT2 stably expressing cell line, respectively (Khunweeraphong et al. J Pharmacol Sci. 2012 Aug. 18; 119(4): 368-80. Epub 2012 Jul. 31).
(§2) The human LAT1 stably expressing cell line and the human LAT2 stably expressing cell line were seeded at 1.2×10^5 cells/well on separate collagen-coated 24-well plates, and after 48 hours, the cells were washed 3 times with an uptake buffer (Na^2+-free Hank's balanced salt solution (HBSS), pH 7.4) prewarmed at 37° C. Compound 10a, compound 10b or a positive control FAMT (fluoro-α-methyltyrosine) was added at 100 μM, and incubation was performed at 37° C. for 3 minutes. Cells not treated with any of these compounds were used as a negative control. After the incubation, 1 μM of [^14C]L-leucine or [^14C]alanine was added to the wells, [^14C]L-leucine or [^14C]alanine uptake was allowed to proceed for 1 minute, and the cells were washed 3 times with an ice-cold uptake buffer. Subsequently, 500 μL of 0.1 M NaOH was added to each well for cell lysis, 20 μL of the lysate was used for the measurement of the protein concentration, and the remaining lysate was used for the measurement of the intracellular radioactivity. The measured radioactivity was normalized to the protein concentration, and on the assumption that the amino acid uptake activity in the negative control was 100%, the percentage (%) of inhibition of amino acid uptake in the presence of each compound was calculated.
(§3) Using the same cell lines as described in Example 2, the compound of Example 1 was examined for the inhibitory effect on leucine or alanine uptake in the human LAT1 stably expressing cell line and the human LAT2 stably expressing cell line in the same manner as in Example 2. FAMT was used as the positive control. The compound of Example 1 or FAMT was added at 100 μM. Cells not treated with either of these compounds were used as a negative control. On the assumption that the amino acid uptake activity in the negative control (control) was 100%, the percentage (%) of inhibition of amino acid uptake in the presence of FAMT or the compound of Example 1 was calculated. In addition, the cancer cell selectivity was calculated as the ratio of the amino acid uptake activity in the human LAT2 stably expressing cell line relative to that in the human LAT1 stably expressing cell line.
(§4) In another experiment, the cells were treated with the compound of Example 1 at eight different concentrations (0.1, 1, 3, 10, 30, 100, 300 and 1000 μM), and the concentration causing 50% inhibition of amino acid uptake was calculated as the IC50 value.
(§5) A human LAT1 stably expressing cell line and a human LAT2 stably expressing cell line, each of which was the same as described in Example 2, were seeded at 1.2×10^5 cells/well, and after 48 hours, the cells were washed 3 times with an uptake buffer (Na^2+-free Hank's balanced salt solution (HBSS), pH 7.4) prewarmed at 37° C. The test compounds, L-tyrosine or the positive control FAMT (fluoro-α-methyltyrosine) was added at 30 μM, and incubation was performed at 37° C. for 3 minutes. Cells not treated with any of these compounds were used as a negative control. After the incubation, 1 μM of [^14C]L-leucine or [^14C]alanine was added to the wells, [^14C]L-leucine or [^14C]alanine uptake was allowed to proceed for 1 minute, and the cells were washed 3 times with an ice-cold uptake buffer. […]

[2] = target: T2, human LAT1 (Homo sapiens, UniProt Q01650); assay: Inhibition of amino acid uptake in human LAT1 stably expressing cell line; type: cell-based
T2 construct: expressed in transfected cells
Excerpt: as §1, §2, §3, §4, §5

[3] = compound at 30 μM, human LAT1 stably expressing HEK293 cell line, 30 µM

T2 sequence (Q01650 whole entry, one chain of several): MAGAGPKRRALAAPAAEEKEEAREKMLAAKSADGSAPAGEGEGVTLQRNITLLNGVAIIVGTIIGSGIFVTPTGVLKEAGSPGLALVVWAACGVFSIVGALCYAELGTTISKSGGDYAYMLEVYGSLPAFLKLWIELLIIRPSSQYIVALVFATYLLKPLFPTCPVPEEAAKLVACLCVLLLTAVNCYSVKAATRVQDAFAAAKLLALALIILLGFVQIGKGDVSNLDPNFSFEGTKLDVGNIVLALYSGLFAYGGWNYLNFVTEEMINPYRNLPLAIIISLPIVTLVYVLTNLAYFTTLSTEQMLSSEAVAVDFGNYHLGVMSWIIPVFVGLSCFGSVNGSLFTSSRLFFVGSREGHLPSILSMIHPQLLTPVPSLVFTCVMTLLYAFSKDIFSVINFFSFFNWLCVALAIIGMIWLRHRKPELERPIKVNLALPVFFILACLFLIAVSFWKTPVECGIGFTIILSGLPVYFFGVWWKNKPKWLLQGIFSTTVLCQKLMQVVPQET

Compound	Percentage of inhibition of LAT2-mediated amino acid uptake ([1]; compound at 30 μM, 30 µM)	Cancer cell selectivity (amino acid uptake activity in human LAT2 line / in human LAT1 line) ([2]; compound at 30 μM)	Percentage of inhibition of LAT1-mediated amino acid uptake [2, 3]	further results
NC(Cc1cc(OCCF)ccc1I)C(=O)O (single isomer, unassigned) [compound 10a, 2-amino-3-(5-(2-fluoroethoxy)-2-iodophenyl)propanoic acid]	4.7%	1.44	33.8%	Cancer cell selectivity (amino acid uptake activity in human LAT2 line / in human LAT1 line) ([2]; compound at 100 μM): higher than that in the human LAT2 stably expressing cell line
NC(Cc1cc(OCCF)ccc1I)C(=O)O (single isomer, unassigned) [compound 10b, 2-amino-3-(5-(2-fluoroethoxy)-2-iodophenyl)propanoic acid]	24.5%	8.59	91.2%	Cancer cell selectivity (amino acid uptake activity in human LAT2 line / in human LAT1 line) ([2]; compound at 100 μM): higher than that in the human LAT2 stably expressing cell line
NC(Cc1cc(OCCCCF)ccc1I)C(=O)O (single isomer, unassigned) [compound 25a, 2-amino-3-(5-(4-fluorobutoxy)-2-iodophenyl)propanoic acid]		1.49	37.7%	inhibition at 30 µM [1]: 7.3%
NC(Cc1cc(OCCCCF)ccc1I)C(=O)O (single isomer, unassigned) [compound 25b, 2-amino-3-(5-(4-fluorobutoxy)-2-iodophenyl)propanoic acid]	11.3%	15.13	94.1%	
NC(Cc1cc(OCCOCCF)ccc1I)C(=O)O (single isomer, unassigned) [compound 27 (R), 2-amino-3-(5-(2-(2-fluoroethoxy)ethoxy)-2-iodophenyl)propanoic acid]		1.39	35.4%	inhibition at 30 µM [1]: 10.6%
NC(Cc1cc(OCCOCCF)ccc1I)C(=O)O (single isomer, unassigned) [compound 27 (S), 2-amino-3-(5-(2-(2-fluoroethoxy)ethoxy)-2-iodophenyl)propanoic acid]	6.5%	9.04	89.5%	
N[C@@H](Cc1ccc(O)cc1)C(=O)O [L-Tyr, L-tyrosine, reference compound]		1.16		inhibition at 30 µM [1]: 33.1%; inhibition at 30 µM ([2]; HEK293, compound at 30 μM, human LAT1 stably expressing HEK293 cell line, read-out: Percentage of inhibition of LAT1-mediated amino acid uptake): 42.3%
fluoro-α-methyltyrosine [FAMT, reference compound]		1.5		Percentage of inhibition of LAT2-mediated amino acid uptake ([1]; compound at 30 μM): 16.3%; Percentage of inhibition of LAT2-mediated amino acid uptake ([1]; compound at 100 μM, 1 μM [14C]L-leucine or [14C]alanine, 1 min uptake): 28.3%; Percentage of inhibition of LAT1-mediated amino acid uptake ([2]; compound at 30 μM, human LAT1 stably expressing HEK293 cell line): 44.2%; Percentage of inhibition of LAT1-mediated amino acid uptake ([2]; compound at 100 μM, human LAT1 stably expressing HEK293 cell line, 1 μM [14C]L-leucine or [14C]alanine, 1 min uptake): 52.4%

Now from value to compound, other results behind:

Percentage of inhibition of LAT2-mediated amino acid uptake ([1]; compound at 30 μM, 30 µM)	Cancer cell selectivity (amino acid uptake activity in human LAT2 line / in human LAT1 line) ([2]; compound at 30 μM)	Percentage of inhibition of LAT1-mediated amino acid uptake [2, 3]	Compound	further results
11.8%	1.41	37.5%	NC(Cc1cc(OCCF)ccc1C1CC1)C(=O)O (single isomer, unassigned) [compound 23a, 2-amino-3-(2-cyclopropyl-5-(2-fluoroethoxy)phenyl)propanoic acid]	
39.9%	11.2	94.5%	NC(Cc1cc(OCCF)ccc1C1CC1)C(=O)O (single isomer, unassigned) [compound 23b, 2-amino-3-(2-cyclopropyl-5-(2-fluoroethoxy)phenyl)propanoic acid]	
0.8%	1.12	11.6%	NC(Cc1cc(OCCF)ccc1Br)C(=O)O (single isomer, unassigned) [compound 24a, 2-amino-3-(2-bromo-5-(2-fluoroethoxy)phenyl)propanoic acid]	
34.3%	4.42	85.1%	NC(Cc1cc(OCCF)ccc1Br)C(=O)O (single isomer, unassigned) [compound 24b, 2-amino-3-(2-bromo-5-(2-fluoroethoxy)phenyl)propanoic acid]	
